{
  "source": "BindingDB's records for doi:10.1021/jm300491y",
  "about": "(San Francisco State University, 2012)",
  "data": [
    {"experiment": "Inhibition of UT-B in wild type CD1 mouse erythrocyte assessed as hemolysis after 10 mins", "units": {"IC50": "µM"}, "values": [
      {"smiles": "CC(C)c1ccc(S(=O)(=O)c2nnn3c2nc(NCc2cccc4ccccc24)c2sccc23)cc1", "IC50": "> 2.5"},
      {"smiles": "CCc1ccc(S(=O)(=O)c2nnn3c2nc(N2CCOCC2)c2sccc23)cc1", "IC50": 5.6},
      {"smiles": "Cc1ccc(S(=O)(=O)c2nnn3c2nc(N2CCCCC2)c2sccc23)cc1C", "IC50": "> 25"}
    ]}
  ]
}
